# Source: patent US10155749B2, “Substituted benzimidazolium compounds useful in the treatment of respiratory diseases” (Boehringer Ingelheim International GmbH, priority 2015, dated 2018)
# Target: T1, ENaC (Epithelial Sodium Channel) (Mus musculus, UniProt Q61180+Q9WU38+Q9WU39)
# T1 construct: Mouse kidney M-1 cells were cultivated in DMEM containing 5% FCS and 5 μM dexamethasone; endogenous in cells; host or cells: Mouse kidney M-1 cells
# T1 sequence (Q61180 1-699): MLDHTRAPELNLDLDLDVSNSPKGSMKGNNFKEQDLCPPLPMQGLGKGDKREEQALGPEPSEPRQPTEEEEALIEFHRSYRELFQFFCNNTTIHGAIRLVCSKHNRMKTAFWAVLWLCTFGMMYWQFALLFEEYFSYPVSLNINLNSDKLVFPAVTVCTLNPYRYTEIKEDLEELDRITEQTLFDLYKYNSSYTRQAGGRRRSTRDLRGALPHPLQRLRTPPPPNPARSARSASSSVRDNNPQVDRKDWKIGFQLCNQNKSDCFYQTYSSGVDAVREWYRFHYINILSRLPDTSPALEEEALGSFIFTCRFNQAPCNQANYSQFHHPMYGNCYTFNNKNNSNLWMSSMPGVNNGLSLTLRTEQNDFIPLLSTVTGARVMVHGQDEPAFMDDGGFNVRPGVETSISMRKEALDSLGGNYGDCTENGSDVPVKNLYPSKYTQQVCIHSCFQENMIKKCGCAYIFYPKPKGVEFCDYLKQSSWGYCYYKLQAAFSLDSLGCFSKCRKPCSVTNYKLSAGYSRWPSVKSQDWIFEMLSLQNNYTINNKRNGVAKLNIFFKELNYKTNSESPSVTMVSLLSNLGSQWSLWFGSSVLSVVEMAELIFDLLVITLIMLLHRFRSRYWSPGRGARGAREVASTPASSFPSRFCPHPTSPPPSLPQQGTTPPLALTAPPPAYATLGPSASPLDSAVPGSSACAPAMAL
# T1 sequence (Q9WU38 1-638): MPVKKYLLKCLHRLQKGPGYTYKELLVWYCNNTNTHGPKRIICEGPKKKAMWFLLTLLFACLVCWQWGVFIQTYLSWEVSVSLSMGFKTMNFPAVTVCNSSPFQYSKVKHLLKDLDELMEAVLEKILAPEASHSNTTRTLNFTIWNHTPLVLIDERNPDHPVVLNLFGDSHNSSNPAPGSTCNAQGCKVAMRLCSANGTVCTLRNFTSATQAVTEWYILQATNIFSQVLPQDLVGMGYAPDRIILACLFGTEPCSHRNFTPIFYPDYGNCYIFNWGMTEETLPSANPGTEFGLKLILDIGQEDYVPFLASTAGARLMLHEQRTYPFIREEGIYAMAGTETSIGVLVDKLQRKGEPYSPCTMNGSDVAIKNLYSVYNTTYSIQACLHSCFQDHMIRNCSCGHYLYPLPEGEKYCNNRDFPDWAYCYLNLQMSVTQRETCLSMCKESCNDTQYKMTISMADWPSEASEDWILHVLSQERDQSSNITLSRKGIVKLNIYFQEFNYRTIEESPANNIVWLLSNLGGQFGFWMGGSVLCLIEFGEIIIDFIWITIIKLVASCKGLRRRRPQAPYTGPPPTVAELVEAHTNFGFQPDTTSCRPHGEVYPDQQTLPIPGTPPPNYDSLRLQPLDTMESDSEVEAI
# T1 sequence (Q9WU39 1-655): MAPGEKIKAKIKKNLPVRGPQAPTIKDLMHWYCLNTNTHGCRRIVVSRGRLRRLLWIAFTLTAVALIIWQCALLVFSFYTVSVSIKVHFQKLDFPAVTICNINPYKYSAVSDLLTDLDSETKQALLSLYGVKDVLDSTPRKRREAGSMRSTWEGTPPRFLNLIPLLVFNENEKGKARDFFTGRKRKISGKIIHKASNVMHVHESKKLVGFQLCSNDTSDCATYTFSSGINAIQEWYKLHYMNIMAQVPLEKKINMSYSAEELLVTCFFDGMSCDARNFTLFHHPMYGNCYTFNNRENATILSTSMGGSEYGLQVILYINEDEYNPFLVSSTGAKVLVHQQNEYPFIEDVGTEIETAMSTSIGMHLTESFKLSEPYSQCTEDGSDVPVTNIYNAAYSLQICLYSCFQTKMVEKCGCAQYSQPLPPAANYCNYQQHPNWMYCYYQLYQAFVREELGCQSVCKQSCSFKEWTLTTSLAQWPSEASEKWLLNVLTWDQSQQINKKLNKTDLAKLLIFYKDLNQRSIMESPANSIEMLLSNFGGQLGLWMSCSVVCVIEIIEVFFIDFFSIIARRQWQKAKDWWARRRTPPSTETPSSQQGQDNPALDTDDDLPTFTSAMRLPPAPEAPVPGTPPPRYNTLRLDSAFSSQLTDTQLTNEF
# Experiment: Ussing Chamber assay (short circuit current, amiloride sensitive I_SC) in M-1 cells
# Assay type: cell-based
# Settings: Mouse kidney M-1 cells, apical application, 37° C.
# Protocol: The IC50 values of the example compounds given above were determined in the Ussing Chamber assay.
# Ussing Chamber: Mouse kidney M-1 cells were cultivated in DMEM containing 5% FCS and 5 μM dexamethasone for 10 to 12 days on polyester transwell filters. Filters were inserted into a teflon-coated well-plate which fit into the ussing chamber system. Prior to measurement the medium of M-1 cells was replaced with Caco-2 transport buffer (Invitrogen, Germany). During measurements, the Ussing chamber temperature was kept at 37° C. Short circuit currents (I_sc) were measured in the voltage-clamp mode with the software package Lab View for data acquisition and analysis. The transepithelial electrical resistance (TEER) was determined by the application of voltage steps of ±5 mV every 5 sec. Compounds were administered at a final concentration of 3 μM or at increasing concentrations (1-3-10 μM) to the apical solution. At the end of each experiment the amiloride sensitive I_SC was measured by adding 3 μM amiloride to the apical compartment. Results are expressed as inhibition in percent of the amiloride effect or as IC50.
row,Structure (SMILES),IC50
1,CC[n+]1c(CNC(=O)c2nc(Cl)c(N)nc2N)n(CCO)c2cc(OCC(=O)NC3CCN(C(C)=O)CC3)ccc21 [Example 1.04],2 nM
2,CC[n+]1c(CNC(=O)c2nc(Cl)c(N)nc2N)n(C[C@H](C)O)c2cc(N(C)C)c(C(=O)N3CCN(C(=O)c4cncc(O)c4)CC3)cc21 [Example 4.17],23 nM
3,CCNC(=O)c1cc2c(cc1OCC(=O)NCCOC)n(CC)c(CNC(=O)c1nc(Cl)c(N)nc1N)[n+]2CC [Example 3.21],9 nM
4,CCNC(=O)c1cc2c(cc1OCC(=O)NC1CCN(C)CC1)n(CC)c(CNC(=O)c1nc(Cl)c(N)nc1N)[n+]2CC [Example 3.18],4 nM
5,CCn1c(CNC(=O)c2nc(Cl)c(N)nc2N)[n+](CC)c2ccc(OCCNC(=O)[C@H](C)N(C)C(=O)OC(C)(C)C)cc21 [Example 4.08],2 nM
6,CCN(CC)CC(=O)NCCOc1ccc2c(c1)n(CC)c(CNC(=O)c1nc(Cl)c(N)nc1N)[n+]2CC [Example 4.04],1 nM
7,CCn1c(CNC(=O)c2nc(Cl)c(N)nc2N)[n+](CC)c2ccc(OCCNC(=O)CN3CCCC3)cc21 [Example 4.07],1 nM
8,CCn1c(CNC(=O)c2nc(Cl)c(N)nc2N)[n+](CC)c2ccc(OCCNC(=O)C3CCCN3C)cc21 (stereo not shown) [Example 4.06],0.3 nM
9,CCCCCCN(C)C(=O)c1cc2c(cc1N1C[C@H](O)[C@@H](O)C1)n(CCO)c(CNC(=O)c1nc(Cl)c(N)nc1N)[n+]2CC [Example 1.16],11 nM
10,CCn1c(CNC(=O)c2nc(Cl)c(N)nc2N)[n+](CC)c2ccc(OCC(=O)N(C)Cc3nc(C)ccc3[O-])cc21 [Example 3.02],0.4 nM
11,CCN1CCC(NC(=O)COc2ccc3c(c2)n(CC)c(CNC(=O)c2nc(Cl)c(N)nc2N)[n+]3CC)CC1 [Example 3.09],0.2 nM
12,CCn1c(CNC(=O)c2nc(Cl)c(N)nc2N)[n+](CC)c2ccc(OCCNC(=O)CN3CCOCC3)cc21 [Example 4.02],2 nM
13,CCn1c(CNC(=O)c2nc(Cl)c(N)nc2N)[n+](CC)c2cc(C(=O)N3CCN(C(=O)N4CCOCC4)CC3)c(F)cc21 [Example 3.15],1 nM
14,CCn1c(CNC(=O)c2nc(Cl)c(N)nc2N)[n+](CC)c2ccc(OCC(=O)Nc3cncc(OCc4ccccc4)c3)cc21 [Example 3.13],2 nM
15,CCn1c(CNC(=O)c2nc(Cl)c(N)nc2N)[n+](CC)c2ccc(OCCNC(=O)C3CCCN3C(=O)OC(C)(C)C)cc21 (stereo not shown) [Example 4.11],2 nM
16,CCNC(=O)COc1cc2c(cc1C(=O)NC1CCN(C(=O)OC(C)(C)C)CC1)[n+](CC)c(CNC(=O)c1nc(Cl)c(N)nc1N)n2CC [Example 3.23],8 nM
17,CCn1c(CNC(=O)c2nc(Cl)c(N)nc2N)[n+](CC)c2ccc(OCC(=O)NCCN)cc21 [Example 3.25],1 nM
18,CCCn1c(CNC(=O)c2nc(Br)c(N)nc2N)[n+](C)c2ccc(OCC(=O)N(C)Cc3nc(C)ccc3O)cc21 [Example 2.01],1 nM
19,CCCCCCN1CCC(NC(=O)COc2ccc3c(c2)n(CC)c(CNC(=O)c2nc(Cl)c(N)nc2N)[n+]3CC)CC1 [Example 3.04],0.6 nM
20,CCn1c(CNC(=O)c2nc(Cl)c(N)nc2N)[n+](CC)c2ccc(C(=O)NCCNS(C)(=O)=O)cc21 [Example 3.14],0.4 nM
21,CCn1c(CNC(=O)c2nc(Cl)c(N)nc2N)[n+](CC)c2ccc(CNC(=O)Cc3ncccc3O)cc21 [Example 4.03],0.4 nM
22,CCCCCCN1CCC(NC(=O)COc2cc3c(cc2C(=O)NCC)[n+](CC)c(CNC(=O)c2nc(Cl)c(N)nc2N)n3CC)CC1 [Example 3.20],15 nM
23,CCn1c(CNC(=O)c2nc(Cl)c(N)nc2N)[n+](CC)c2cc(C(=O)NC3CCNCC3)c(OCC(=O)NC3CCN(C)CC3)cc21 [Example 3.22],10 nM
24,CCNC(=O)CN1CCC(NC(=O)c2cc3c(cc2F)[n+](CC)c(CNC(=O)c2nc(Cl)c(N)nc2N)n3CC)CC1 [Example 3.10],1 nM
25,CCn1c(CNC(=O)c2nc(Cl)c(N)nc2N)[n+](CC)c2ccc(OCCNC(=O)CN3CCC(NC(=O)OC(C)(C)C)CC3)cc21 [Example 4.10],1 nM
26,CCOc1cc2c(cc1C(=O)N1CCN(C(=O)c3cncc(O)c3)CC1)[n+](CC)c(CNC(=O)c1nc(Cl)c(N)nc1N)n2CC [Example 4.16],2 nM
27,CCNC(=O)c1cc2c(cc1OCC(=O)NC1CCN(C(=O)OC(C)(C)C)CC1)n(CC)c(CNC(=O)c1nc(Cl)c(N)nc1N)[n+]2CC [Example 3.19],9 nM
28,CCCCCOc1cc2c(cc1C(=O)N1CCN(C(=O)OC(C)(C)C)CC1)[n+](CC)c(CNC(=O)c1nc(Cl)c(N)nc1N)n2C[C@H](C)O [Example 1.10],52 nM
29,CCCCCC(=O)N(CCOc1ccc2c(c1)n(C[C@H](C)O)c(CNC(=O)c1nc(Cl)c(N)nc1N)[n+]2CC)CP(C)(C)=O [Example 1.06],2 nM

# More lines, now with the values ahead:
row,IC50,Structure (SMILES)
1,0.4 nM,CCn1c(CNC(=O)c2nc(Cl)c(N)nc2N)[n+](CC)c2cc(C(=O)NC3CCNCC3)c(F)cc21 [Example 6.06]
2,8 nM,CCCCCOc1cc2c(cc1C(=O)N1CCNCC1)[n+](CC)c(CNC(=O)c1nc(Cl)c(N)nc1N)n2C[C@H](C)O [Example 8.03]
3,1 nM,CCOc1cc2c(cc1C(=O)N1CCNCC1)[n+](CC)c(CNC(=O)c1nc(Cl)c(N)nc1N)n2CC [Example 8.02]
4,1 nM,CCNC(=O)c1cc2c(cc1OCC(=O)NC1CCNCC1)n(CC)c(CNC(=O)c1nc(Cl)c(N)nc1N)[n+]2CC [Example 6.08]
5,6 nM,CC[n+]1c(CNC(=O)c2nc(Cl)c(N)nc2N)n(C[C@H](C)O)c2cc(N(C)C)c(C(=O)N3CCNCC3)cc21 [Example 8.01]
6,1 nM,CCn1c(CNC(=O)c2nc(Cl)c(N)nc2N)[n+](CC)c2ccc(OCCNC(=O)CN3CCC(N)CC3)cc21 [Example 6.05]
7,29 nM,CCn1c(CNC(=O)c2nc(Cl)c(N)nc2N)[n+](CC)c2cc(C(=O)NC3CCNCC3)c(OCC(=O)O)cc21 [Example 7.02]
8,0.4 nM,CCn1c(CNC(=O)c2nc(Cl)c(N)nc2N)[n+](CC)c2ccc(OCCNC(=O)C3CCCN3)cc21 (stereo not shown) [Example 6.04]
9,9 nM,CCn1c(CNC(=O)c2nc(Cl)c(N)nc2N)[n+](CC)c2cc(C(=O)NC3CCN(C(=O)OC(C)(C)C)CC3)c(OCC(=O)O)cc21 [Example 9.01]
10,0.4 nM,CCn1c(CNC(=O)c2nc(Cl)c(N)nc2N)[n+](CC)c2ccc(OCCNC(=O)[C@H](C)N)cc21 [Example 6.07]
11,38 nM,CCNC(=O)c1cc2c(cc1OCC(=O)O)n(CC)c(CNC(=O)c1nc(Cl)c(N)nc1N)[n+]2CC [Example 7.01]
